In PMC11821258 (Molecules, 2025) one finds induction of apoptosis, IC50 and SI data, which are given here for one compound.

By IC50 is commonly meant the concentration at which inhibition is half-maximal.

The first assay deals with MV4-11 cells. Put plainly: Apoptosis determination via Annexin V and PI staining. Format: cell-based, human. As to conditions: MV4-11, 24 h. On the procedure:
Camptothecin at a concentration of 0.05 uM was used as a positive control. After incubation, the cells were collected and counted with a hemocytometer, and 1×10^5 cells were washed twice with PBS. APC-Annexin V (Becton Dickinson, Pharmingen, Franklin Lakes, NJ, USA) was dissolved to the concentration of […] in a binding buffer (10 mM HEPES/NaOH, pH 7.4; 150 mM NaCl; 5 mM KCl; 1 mM MgCl2; and 1.8 mM CaCl2) (HIIET, Wrocław, Poland), and the cells were suspended in 200 µL of this solution. After 15 min of the incubation in the dark at room temperature, 20 µL of propidium iodide (PI) solution (0.02 mg/mL) was added. Data acquisition was performed by conducting flow cytometry using a BD LSRFortessa cytometer (BD Bioscience, San Jose, CA, USA). The compounds were tested at least three times independently. Results were analyzed using Flowing software 2.5.1 (Turku, Finland). […] Double-negative cells were live cells, PI+/Annexin V+ were late apoptotic cells, PI-/Annexin V+ were early apoptotic cells, and PI+/Annexin V- were necrotic cells.
As to `C#CC(=O)OC[C@]12CC[C@@H](C(=C)C)C1C1CCC3[C@@]4(C)CC[C@H](OC(=O)CC(C)(C)CC(=O)O)C(C)(C)C4CC[C@@]3(C)[C@]1(C)CC2` (stereo partly drawn) [Compound 4a], the induction of apoptosis entry is reported as “induced apoptosis”.

Still in this assay, the particulars now being: MV4-11, 72 h, higher concentrations.
In the case of `C#CC(=O)OC[C@]12CC[C@@H](C(=C)C)C1C1CCC3[C@@]4(C)CC[C@H](OC(=O)CC(C)(C)CC(=O)O)C(C)(C)C4CC[C@@]3(C)[C@]1(C)CC2` (stereo partly drawn) [Compound 4a], the induction of apoptosis entry was “induction of apoptosis was observed”.

A further assay concerns human biphenotypic B myelomonocytic leukemia MV4-11. The assay is described as follows: Antiproliferative activity, MTT assay, 72 h. Format: cell-based. Conditions: Homo sapiens; MV4-11, 72 h, MTT; read-out: IC50. On the procedure:
(§1) The tested compounds were dissolved in DMSO (dimethyl sulfoxide) to a concentration of 10 mg/mL and then were diluted in the culture medium to reach the final concentrations. The cells were plated in 384-well plates at a density of 1 × 10^3 or 2 × 10^3 (MCF-10A) cells per well (Greiner Bio One, Kremsmünster, Austria) and in 96-well plates (MV4-11 cell; Sarstedt, Nümbrecht, Germany) at a density of 5 × 10^3 cells per well. After 24 h of incubation, the tested compounds were added at concentrations in the range of 100–0.03 µg/mL and, after the next 72 h of exposure to tested agents, the cytotoxic effect of all agents was examined using the MTT (MV4-11) or SRB assay, described previously. The values of IC50 (inhibitory concentration 50%) were calculated separately for each experiment (repeated 3–5 times) using the Prolab-3 system which is based on Cheburator 0.4 software. Doxorubicin was applied as a reference drug. The IC50 values in µg/mL were calculated to µM.
This assay was used against MV4-11 leukemia cells and was performed after 72 h of exposure of the tested agents to the cells. For each well, 20 µL of the MTT [3-(4,5-dimethylthiazol-2-yl)-2,5-diphenyl tetrazolium bromide] solution (5 mg/mL, Merck, Darmstadt, Germany) was added. After the incubation time (4 h at 37 °C), 80 µL of the lysing buffer was added to each well (mixture of 225 mL of DMF (dimethylformamide) Avantor, Poland; 67.5 g of SDS, Merck, Darmstadt, Germany; and 275 mL of distilled water). After the next 24 h, the absorbance of the samples was measured at a 570 nm wavelength on a Synergy H4 photometer (BioTek Instruments, Winooski, VT, USA). The absorbance of wells without the cells was the background.
(In general: Tetrazolium dyes change colour on reduction, which living cells bring about.)
As to `C#CC(=O)OC[C@]12CC[C@@H](C(=C)C)C1C1CCC3[C@@]4(C)CC[C@H](OC(=O)CC(C)(C)CC(=O)O)C(C)(C)C4CC[C@@]3(C)[C@]1(C)CC2` (stereo partly drawn) [Compound 4a], the IC50 is 0.38 ± 0.14 µM.

Another assay concerns human normal epithelial cells from the mammary gland (MCF-10A). The assay is described as follows: Cytotoxicity on non-tumorigenic cells, SRB assay, 72 h. As to conditions: Homo sapiens, MCF-10A normal cells, SRB, read-out: IC50. Format: cell-based. The method, then:
as §1
(§2) The cytotoxicity assay was performed after the cultured cells were exposed to the tested agents for 72 h using the authomatic Washer dyspenser EL406, BioTek. At the first step, the washer dispenser collected 40 µL of cultured medium from each wells, and then the cells were fixed by gently layering 20 µL per well of cold 25% trichloroacetic acid to each well. The incubation time was 40 min and then the plates were washed with tap water. The cells were stained with 20 µL per well of 0.1% sulforhodamine B (SRB, Merck, Darmstadt, Germany) for 30 min. Unbound sulforhodamine B was removed by washing it with 1% acetic acid. The protein-bound dye was extracted in 30 min using 70 µL per well of 10 mM unbuffered Tris base (Merck, Darmstadt, Germany). The absorbance (at 540 nm) was measured on a Synergy H4 photometer (BioTek Instruments, Winooski, VT, USA). The absorbance of the wells without the cells was the background.
In general terms: The SRB assay estimates cell density from bound dye.
Consider `C#CC(=O)OC[C@]12CC[C@@H](C(=C)C)C1C1CCC3[C@@]4(C)CC[C@H](OC(=O)CC(C)(C)CC(=O)O)C(C)(C)C4CC[C@@]3(C)[C@]1(C)CC2` (stereo partly drawn) [Compound 4a], for which the IC50 is 33.1 ± 5.18 µM.

A further assay has as its system human colon cancer HCT116 cells. Put plainly: Antiproliferative activity, SRB assay, 72 h. Format: cell-based. Conditions: Homo sapiens, HCT-116; HCT116, 72 h, SRB; read-out: IC50. On the procedure:
as §1, §2
Turning to `C#CC(=O)OC[C@]12CC[C@@H](C(=C)C)C1C1CCC3[C@@]4(C)CC[C@H](OC(=O)CC(C)(C)CC(=O)O)C(C)(C)C4CC[C@@]3(C)[C@]1(C)CC2` (stereo partly drawn) [Compound 4a], the IC50 is 7.85 ± 2.35 µM.

The same assay, now with this note: IC50 MCF-10A / IC50 HCT116.
Turning to `C#CC(=O)OC[C@]12CC[C@@H](C(=C)C)C1C1CCC3[C@@]4(C)CC[C@H](OC(=O)CC(C)(C)CC(=O)O)C(C)(C)C4CC[C@@]3(C)[C@]1(C)CC2` (stereo partly drawn) [Compound 4a], the SI is 4.22.

The subject of another assay is human melanoma Hs294T cells. Put plainly: Antiproliferative activity, SRB assay, 72 h. Format: cell-based. As to conditions: Homo sapiens, Hs 294T; Hs249T (so in the source), 72 h, SRB; read-out: IC50. On the procedure: as §1, §2
In the case of `C#CC(=O)OC[C@]12CC[C@@H](C(=C)C)C1C1CCC3[C@@]4(C)CC[C@H](OC(=O)CC(C)(C)CC(=O)O)C(C)(C)C4CC[C@@]3(C)[C@]1(C)CC2` (stereo partly drawn) [Compound 4a], the IC50 came out at 0.49 ± 0.23 µM.

The assay is the same for the next values; noted with them: IC50 MCF-10A / IC50 Hs249T (so in the source).
With `C#CC(=O)OC[C@]12CC[C@@H](C(=C)C)C1C1CCC3[C@@]4(C)CC[C@H](OC(=O)CC(C)(C)CC(=O)O)C(C)(C)C4CC[C@@]3(C)[C@]1(C)CC2` (stereo partly drawn) [Compound 4a], the SI came to 67.

Another assay has as its system human prostate adenocarcinoma PC-3. Put plainly: Antiproliferative activity, SRB assay, 72 h. Format: cell-based. As to conditions: Homo sapiens; PC-3, 72 h, SRB; read-out: IC50. On the procedure: as §1, §2
For `C#CC(=O)OC[C@]12CC[C@@H](C(=C)C)C1C1CCC3[C@@]4(C)CC[C@H](OC(=O)CC(C)(C)CC(=O)O)C(C)(C)C4CC[C@@]3(C)[C@]1(C)CC2` (stereo partly drawn) [Compound 4a], the IC50 worked out at 0.86 ± 0.25 µM.

For another assay, the system named is human pancreas cancer MiaPaca-2 cells. The assay is described as follows: Antiproliferative activity, SRB assay, 72 h. Format: cell-based. As to conditions: Homo sapiens, MIA PaCa-2; MiaPaca-1 (so in the source), 72 h, SRB; read-out: IC50. On the procedure: as §1, §2
On to `C#CC(=O)OC[C@]12CC[C@@H](C(=C)C)C1C1CCC3[C@@]4(C)CC[C@H](OC(=O)CC(C)(C)CC(=O)O)C(C)(C)C4CC[C@@]3(C)[C@]1(C)CC2` (stereo partly drawn) [Compound 4a], for which the IC50 was 7.54 ± 0.47 µM.

Staying with this assay, now noted: IC50 MCF-10A / IC50 MiaPaca-1 (so in the source).
For `C#CC(=O)OC[C@]12CC[C@@H](C(=C)C)C1C1CCC3[C@@]4(C)CC[C@H](OC(=O)CC(C)(C)CC(=O)O)C(C)(C)C4CC[C@@]3(C)[C@]1(C)CC2` (stereo partly drawn) [Compound 4a], the SI amounted to 4.40.

The test system of a further assay is human lung carcinoma A549. The assay is described as follows: Antiproliferative activity, SRB assay, 72 h. Conditions: Homo sapiens; A549, 72 h, SRB; read-out: IC50. Format: cell-based. On the procedure: as §1, §2
Consider `C#CC(=O)OC[C@]12CC[C@@H](C(=C)C)C1C1CCC3[C@@]4(C)CC[C@H](OC(=O)CC(C)(C)CC(=O)O)C(C)(C)C4CC[C@@]3(C)[C@]1(C)CC2` (stereo partly drawn) [Compound 4a], for which the IC50 is 7.54 ± 1.25 µM.

Staying with this assay, now noted: IC50 MCF-10A / IC50 A549.
Take `C#CC(=O)OC[C@]12CC[C@@H](C(=C)C)C1C1CCC3[C@@]4(C)CC[C@H](OC(=O)CC(C)(C)CC(=O)O)C(C)(C)C4CC[C@@]3(C)[C@]1(C)CC2` (stereo partly drawn) [Compound 4a]: the SI turned out to be 4.40.

The next assay has as its system human breast cancer MCF-7. Put plainly: Antiproliferative activity, SRB assay, 72 h. Format: cell-based. As to conditions: Homo sapiens, MCF7; MCF-7, 72 h, SRB; read-out: IC50. On the procedure:
as §1, §2
For `C#CC(=O)OC[C@]12CC[C@@H](C(=C)C)C1C1CCC3[C@@]4(C)CC[C@H](OC(=O)CC(C)(C)CC(=O)O)C(C)(C)C4CC[C@@]3(C)[C@]1(C)CC2` (stereo partly drawn) [Compound 4a], the IC50 is 16.5 ± 1.88 µM.

The assay is the same for the next values; noted with them: IC50 MCF-10A / IC50 MCF-7.
Consider `C#CC(=O)OC[C@]12CC[C@@H](C(=C)C)C1C1CCC3[C@@]4(C)CC[C@H](OC(=O)CC(C)(C)CC(=O)O)C(C)(C)C4CC[C@@]3(C)[C@]1(C)CC2` (stereo partly drawn) [Compound 4a], for which the SI worked out at 2.01.
